In patent publication US10927123B2, “Modulators of the beta-3 adrenergic receptor useful for the treatment or prevention of disorders related thereto” (Arena Pharmaceuticals, Inc., priority 2016, dated 2021):

Each molecule was assayed against Beta-3 Adrenergic Receptor (Homo sapiens (Human), UniProt P13945) (assay: HTRF cAMP antagonist assay (IC50 determination)). Details: CHO-K1 cells stably expressing recombinant receptor; antagonism of isoproterenol at EC90; cAMP readout.
Chain of Beta-3 Adrenergic Receptor (P13945 whole entry, species assumed): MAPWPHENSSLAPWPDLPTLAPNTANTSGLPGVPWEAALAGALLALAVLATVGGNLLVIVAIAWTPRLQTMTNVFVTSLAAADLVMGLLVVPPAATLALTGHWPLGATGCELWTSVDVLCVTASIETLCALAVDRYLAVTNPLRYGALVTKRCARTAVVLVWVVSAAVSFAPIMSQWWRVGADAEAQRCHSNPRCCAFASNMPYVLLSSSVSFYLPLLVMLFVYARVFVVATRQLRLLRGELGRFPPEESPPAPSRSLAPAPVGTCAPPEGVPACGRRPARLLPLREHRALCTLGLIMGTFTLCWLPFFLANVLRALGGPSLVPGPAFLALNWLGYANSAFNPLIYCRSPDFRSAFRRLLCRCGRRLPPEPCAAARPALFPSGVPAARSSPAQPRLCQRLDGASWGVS
Assay type: cell-based
Method: HTRF cAMP assays were performed according to manufacturer's instructions (Cisbio, cAMP Dynamic 2 Assay Kit; #62AM4PEJ). CHO-K1 cells stably expressing recombinant receptor were harvested and suspended in warm PBS to make a 300,000 cells/mL stock. This cell suspension was dispensed into 384 well assay plates (PerkinElmer ProxiPlate #6008280) at 5 μL per well (1500 cells/well) along with a cAMP standard curve.
Compounds were dissolved and serially diluted (5-fold) in DMSO to generate a 10-point dose response stock. The stock was then diluted 100-fold in assay buffer (PBS containing 1 mM IBMX) before a volume of 2.5 μL was added to the cells (the final, top concentration of compound in the dose-response is typically 10 or 100 μM). After a brief incubation, 2.5 μL of isoproterenol stock, prepared at a concentration 4 times its EC90 at the receptor of interest, was added to the wells. The EC90 for isoproterenol, a beta-adrenergic agonist, was determined in separate experiments using standard methods to measure agonist potencies.
Following a 1-hour incubation at room temperature, 5 μL of cAMP-D2 Reagent diluted in Lysis Buffer was added to each well followed by 5 μL of Cryptate Reagent. Plates were further incubated at room temperature for 1 hour prior to reading. Time resolved fluorescence measurements were collected on a suitable, HTRF-capable plate reader.
Counts from the plate reader were fit to the cAMP standard curve on the assay plate in order to determine cAMP concentrations in each well, and these values were used to construct dose-response curves to obtain IC50 values.
An IC50 of 23.9 nM was found for `CS(=O)(=O)c1cccc(OC[C@@H](O)CNC2COC3(CCN(S(=O)(=O)c4ccc5c(c4)NC(=O)CO5)CC3)C2)c1` (stereo partly drawn) [Compound 53, 6-(3-((S)-2-hydroxy-3-(3-(methylsulfonyl)phenoxy)propylamino)-1-oxa-8-azaspiro[4.5]decan-8-ylsulfonyl)-2H-benzo[b][1,4]oxazin-3(4H)-one] in this work. An IC50 of 45.9 nM was found for `CS(=O)(=O)c1cccc(OC[C@@H](O)CNC2COC3(CCN(S(=O)(=O)c4cccc(F)c4)CC3)C2)c1` (stereo partly drawn) [Compound 54, (2S)-1-(8-(3-fluorophenylsulfonyl)-1-oxa-8-azaspiro[4.5]decan-3-ylamino)-3-(3-(methylsulfonyl)phenoxy)propan-2-ol] in this work. An IC50 of 30.5 nM was found for `CS(=O)(=O)c1cccc(OC[C@@H](O)CNC2COC3(CCN(S(=O)(=O)c4cccc(C#N)c4)CC3)C2)c1` (stereo partly drawn) [Compound 55, 3-(3-((S)-2-hydroxy-3-(3-(methylsulfonyl)phenoxy)propylamino)-1-oxa-8-azaspiro[4.5]decan-8-ylsulfonyl)benzonitrile] in this work. An IC50 of 1990 nM was found for `CS(=O)(=O)c1cccc(OC[C@@H](O)CNC2COC3(CCN(C(=O)Cc4csc(N)n4)CC3)C2)c1` (stereo partly drawn) [Compound 56, 2-(2-aminothiazol-4-yl)-1-(3-((S)-2-hydroxy-3-(3-(methylsulfonyl)phenoxy)propylamino)-1-oxa-8-azaspiro[4.5]decan-8-yl)ethanone] in this work. An IC50 of 487 nM was found for `CS(=O)(=O)c1cccc(OC[C@@H](O)CNC2COC3(CCN(C(=O)c4ccc5ccccc5c4)CC3)C2)c1` (stereo partly drawn) [Compound 57, (3-((S)-2-hydroxy-3-(3-(methylsulfonyl)phenoxy)propylamino)-1-oxa-8-azaspiro[4.5]decan-8-yl)(naphthalen-2-yl)methanone] in this work. An IC50 of 109 nM was found for `CCn1ncc(S(=O)(=O)N2CCC3(CC2)CC(NC[C@H](O)COc2cccc(S(C)(=O)=O)c2)CO3)c1C` (stereo partly drawn) [Compound 58, (2S)-1-(8-(1-ethyl-5-methyl-1H-pyrazol-4-ylsulfonyl)-1-oxa-8-azaspiro[4.5]decan-3-ylamino)-3-(3-(methylsulfonyl)phenoxy)propan-2-ol] in this work. An IC50 of 12.3 nM was found for `CS(=O)(=O)c1cccc(OC[C@@H](O)CNC2COC3(CCN(S(=O)(=O)c4ccc5c(Cl)cccc5c4)CC3)C2)c1` (stereo partly drawn) [Compound 59, (2S)-1-(8-(5-chloronaphthalen-2-ylsulfonyl)-1-oxa-8-azaspiro[4.5]decan-3-ylamino)-3-(3-(methylsulfonyl)phenoxy)propan-2-ol] in this work. An IC50 of 17.4 nM was found for `CS(=O)(=O)c1cccc(OC[C@@H](O)CNC2COC3(CCN(S(=O)(=O)c4cc5ccccc5o4)CC3)C2)c1` (stereo partly drawn) [Compound 60, (2S)-1-(8-(benzofuran-2-ylsulfonyl)-1-oxa-8-azaspiro[4.5]decan-3-ylamino)-3-(3-(methylsulfonyl)phenoxy)propan-2-ol] in this work. An IC50 of 29.8 nM was found for `CS(=O)(=O)c1cccc(OC[C@@H](O)CNC2COC3(CCN(S(=O)(=O)c4ccc5occc5c4)CC3)C2)c1` (stereo partly drawn) [Compound 61, (2S)-1-(8-(benzofuran-5-ylsulfonyl)-1-oxa-8-azaspiro[4.5]decan-3-ylamino)-3-(3-(methylsulfonyl)phenoxy)propan-2-ol] in this work. An IC50 of 24.5 nM was found for `CS(=O)(=O)c1cccc(OC[C@@H](O)CNC2COC3(CCN(S(=O)(=O)c4ccc5[nH]ccc5c4)CC3)C2)c1` (stereo partly drawn) [Compound 62, (2S)-1-(8-(1H-indol-5-ylsulfonyl)-1-oxa-8-azaspiro[4.5]decan-3-ylamino)-3-(3-(methylsulfonyl)phenoxy)propan-2-ol] in this work. An IC50 of 17.2 nM was found for `CS(=O)(=O)c1cccc(OC[C@@H](O)CNC2COC3(CCN(S(=O)(=O)c4cccc(-c5cccnc5)c4)CC3)C2)c1` (stereo partly drawn) [Compound 63, (2S)-1-(3-(methylsulfonyl)phenoxy)-3-(8-(3-(pyridin-3-yl)phenylsulfonyl)-1-oxa-8-azaspiro[4.5]decan-3-ylamino)propan-2-ol] in this work. An IC50 of 922 nM was found for `CN1CCOc2cc(C(=O)N3CCC4(CC3)CC(NC[C@H](O)COc3cccc(S(C)(=O)=O)c3)CO4)ccc21` (stereo partly drawn) [Compound 64, (3-((S)-2-hydroxy-3-(3-(methylsulfonyl)phenoxy)propylamino)-1-oxa-8-azaspiro[4.5]decan-8-yl)(4-methyl-3,4-dihydro-2H-benzo[6][1,4]oxazin-7-yl)methanone] in this work. An IC50 of 711 nM was found for `CS(=O)(=O)c1cccc(OC[C@@H](O)CNC2COC3(CCN(C(=O)c4cc5ccccc5[nH]4)CC3)C2)c1` (stereo partly drawn) [Compound 65, (3-((S)-2-hydroxy-3-(3-(methylsulfonyl)phenoxy)propylamino)-1-oxa-8-azaspiro[4.5]decan-8-yl)(1H-indol-2-yl)methanone] in this work. An IC50 of 982 nM was found for `CS(=O)(=O)c1cccc(OC[C@@H](O)CNC2COC3(CCN(C(=O)c4c[nH]c5ccccc45)CC3)C2)c1` (stereo partly drawn) [Compound 66, (3-((S)-2-hydroxy-3-(3-(methylsulfonyl)phenoxy)propylamino)-1-oxa-8-azaspiro[4.5]decan-8-yl)(1H-indol-3-yl)methanone] in this work. An IC50 of 822 nM was found for `CS(=O)(=O)c1cccc(OC[C@@H](O)CNC2COC3(CCN(C(=O)c4ccc5[nH]ccc5c4)CC3)C2)c1` (stereo partly drawn) [Compound 67, (3-((S)-2-hydroxy-3-(3-(methylsulfonyl)phenoxy)propylamino)-1-oxa-8-azaspiro[4.5]decan-8-yl)(1H-indol-5-yl)methanone] in this work. An IC50 of 494 nM was found for `CS(=O)(=O)c1cccc(OC[C@@H](O)CNC2COC3(CCN(C(=O)c4ccc5cc[nH]c5c4)CC3)C2)c1` (stereo partly drawn) [Compound 68, (3-((S)-2-hydroxy-3-(3-(methylsulfonyl)phenoxy)propylamino)-1-oxa-8-azaspiro[4.5]decan-8-yl)(1H-indol-6-yl)methanone] in this work. An IC50 of 21.2 nM was found for `CS(=O)(=O)c1cccc(OC[C@@H](O)CNC2COC3(CCN(S(=O)(=O)c4cccc(Br)c4)CC3)C2)c1` (stereo partly drawn) [Compound 69, (2S)-1-(8-(3-bromophenylsulfonyl)-1-oxa-8-azaspiro[4.5]decan-3-ylamino)-3-(3-(methylsulfonyl)phenoxy)propan-2-ol] in this work. An IC50 of 24.4 nM was found for `CS(=O)(=O)c1cccc(OC[C@@H](O)CNC2COC3(CCN(S(=O)(=O)c4cccc(-c5ccc(N)nc5)c4)CC3)C2)c1` (stereo partly drawn) [Compound 70, (2S)-1-(8-(3-(6-aminopyridin-3-yl)phenylsulfonyl)-1-oxa-8-azaspiro[4.5]decan-3-ylamino)-3-(3-(methylsulfonyl)phenoxy)propan-2-ol] in this work. An IC50 of 39 nM was found for `CS(=O)(=O)c1cccc(OC[C@@H](O)CNC2COC3(CCN(S(=O)(=O)c4cccc(-c5cncnc5)c4)CC3)C2)c1` (stereo partly drawn) [Compound 71, (2S)-1-(3-(methylsulfonyl)phenoxy)-3-(8-(3-(pyrimidin-5-yl)phenylsulfonyl)-1-oxa-8-azaspiro[4.5]decan-3-ylamino)propan-2-ol] in this work. An IC50 of 329 nM was found for `CS(=O)(=O)c1cccc(OC[C@@H](O)CNC2COC3(CCN(S(=O)(=O)c4ccccn4)CC3)C2)c1` (stereo partly drawn) [Compound 72, (2S)-1-(3-(methylsulfonyl)phenoxy)-3-(8-(pyridin-2-ylsulfonyl)-1-oxa-8-azaspiro[4.5]decan-3-ylamino)propan-2-ol] in this work. An IC50 of 23.9 nM was found for `CS(=O)(=O)c1cccc(OC[C@@H](O)CNC2COC3(CCN(S(=O)(=O)c4ccc5cc(Cl)ccc5c4)CC3)C2)c1` (stereo partly drawn) [Compound 73, (2S)-1-(8-(6-chloronaphthalen-2-ylsulfonyl)-1-oxa-8-azaspiro[4.5]decan-3-ylamino)-3-(3-(methylsulfonyl)phenoxy)propan-2-ol] in this work. An IC50 of 38 nM was found for `CS(=O)(=O)c1cccc(OC[C@@H](O)CNC2COC3(CCN(S(=O)(=O)c4ccc5c(c4)CCO5)CC3)C2)c1` (stereo partly drawn) [Compound 74, (2S)-1-(8-(2,3-dihydrobenzofuran-5-ylsulfonyl)-1-oxa-8-azaspiro[4.5]decan-3-ylamino)-3-(3-(methylsulfonyl)phenoxy)propan-2-ol] in this work. An IC50 of 26.7 nM was found for `CS(=O)(=O)c1cccc(OC[C@@H](O)CNC2COC3(CCN(S(=O)(=O)c4ccc5ncccc5c4)CC3)C2)c1` (stereo partly drawn) [Compound 75, (2S)-1-(3-(methylsulfonyl)phenoxy)-3-(8-(quinolin-6-ylsulfonyl)-1-oxa-8-azaspiro[4.5]decan-3-ylamino)propan-2-ol] in this work. An IC50 of 35.9 nM was found for `CS(=O)(=O)c1cccc(OC[C@@H](O)CNC2COC3(CCN(S(=O)(=O)c4ccc5[nH]cnc5c4)CC3)C2)c1` (stereo partly drawn) [Compound 76, (2S)-1-(8-(1H-benzo[d]imidazol-5-ylsulfonyl)-1-oxa-8-azaspiro[4.5]decan-3-ylamino)-3-(3-(methylsulfonyl)phenoxy)propan-2-ol] in this work. An IC50 of 35.1 nM was found for `CS(=O)(=O)c1cccc(OC[C@@H](O)CNC2COC3(CCN(S(=O)(=O)c4ccc5[nH]ncc5c4)CC3)C2)c1` (some centres unmarked) [Compound 77, (2,5)-1-(8-(1H-indazol-5-ylsulfonyl)-1-oxa-8-azaspiro[4.5]decan-3-ylamino)-3-(3-(methylsulfonyl)phenoxy)propan-2-ol] in this work. An IC50 of 41.9 nM was found for `CNCc1ccc(-c2cccc(S(=O)(=O)N3CCC4(CC3)CC(NC[C@H](O)COc3cccc(S(C)(=O)=O)c3)CO4)c2)cc1` (stereo partly drawn) [Compound 78, (2S)-1-(8-(4′-((methylamino)methyl)biphenyl-3-ylsulfonyl)-1-oxa-8-azaspiro[4.5]decan-3-ylamino)-3-(3-(methylsulfonyl)phenoxy)propan-2-ol] in this work.
